Measurements as given in US5554728A, “Lipid conjugates of therapeutic peptides and protease inhibitors” (priority 1991, dated 1996).
Read-outs that look alike come from different tables or passages of the source. Non-standard residues stand in square brackets, D forms with d. Residues, ends and D or L forms follow the SMILES beside them. *: point of attachment. d1Nal = N[C@H](Cc1cccc2ccccc12)C(=O)O; d2Nal = N[C@H](Cc1ccc2ccccc2c1)C(=O)O; Isobutyloxycarbonyl = CC(C)COC(=O)*; Hica(2S) = CC(C)C[C@H](O)C(=O)O; Pip = O=C(O)[C@@H]1CCCCN1

Test system: HIV
Assay type: cell-based
Description: Assay For The Reduction of HIV Syncytia Formed In HT4-6C Cells
The syncytia reduction assay as described by Larder, B. et al., science 243:1731-1734(1989) was used to measure the antiviral effect of protease inhibitor. A Hela cell line, HT4-6C, expressing the human CD4 receptor on its surface was trypsinized with 0.25% trypsin for 5 min. Cells were centrifuged to remove the residual trypsin, and the cell pellet was resuspended in DMEM with 10% FCS. HeLa cells were plated in 96 well plate (1×10^5 cells/well) overnight. Cell cultures were infected with HIV (approx. 100 PFU/well) for one hour. The […] were then prepared in stock solutions, and were then two fold diluted in 2% DMEM with 0.5% methylcellulose. 100 μl of each diluted antiviral agent is added into each well of HIV infected cells. The treated cell cultures were incubated in 37° C. CO2 incubator for 24 hours. Plates of HIV-infected cell cultures were fixed with methanol and stained with 1% crystal violet for 10 min., the dye is rinsed off with tap water. Each plate is dried and syncytia were counted. The antiviral effect of protease inhibitor is calculated by 50% syncytia reduction.

[1] = antiviral effect calculated by 50% syncytia reduction, HIV-infected HT4-6C (HeLa, human CD4) cells, 24 hours incubation, read-out: IC50

IC50 (24 h) [nM] | IC50 [1] [nM] | SMILES
> 100000 |  | COC(=O)[C@@H]1CCCCN1C(=O)[C@@H](Cc1ccc2ccccc2c1)NC(=O)[C@H](C)NC(=O)[C@H](C)NC(C)=O [EXAMPLE 27-30, Ac-Ala-Ala-(D-b-Nal)-Pip-OMe] (Ac-AA[d2Nal][Pip]-OMe)
 | 3000 | CC(C)(C)OC(=O)NC(CO)C(=O)NC(Cc1ccccc1)C(=O)OCC(O)C(O)COC(=O)C(Cc1ccccc1)NC(=O)C(CO)NC(=O)OC(C)(C)C (stereo not drawn) [EXAMPLE 25, (Boc-Ser-Phe-O--CH2 --CHOH)2]
 | 1000 | CC(C)C(NC(=O)OC(C)(C)C)C(=O)NC(Cc1ccccc1)C(=O)OCC(O)C(O)COC(=O)C(Cc1ccccc1)NC(=O)C(NC(=O)OC(C)(C)C)C(C)C (stereo not drawn) [EXAMPLE 24, (Boc-Val-Phe-O--CH2 --CHOH)2]
10000 |  | CC(C)COC(=O)N[C@H](Cc1ccccc1)C(=O)N[C@H](Cc1cccc2ccccc12)C(=O)N1CCCC[C@H]1C(=O)O[C@@H](CC(C)C)C(=O)N[C@H](C(N)=O)C(C)C [EXAMPLE 27-40, i-Boc-(D-Phe)-(D-a-Nal)-Pip-(a-(OH)-Leu)-Val-NH2] (Isobutyloxycarbonyl-[dF][d1Nal][Pip][Hica(2S)]V-NH2)
